Laboratory results as given in patent US9181236B2, “2-spiro-substituted iminothiazines and their mono-and dioxides as bace inhibitors, compositions and their use” (Merck Sharp & Dohme Corp., priority 2011, dated 2015).

Key:
[1] = target: soluble human BACE1 catalytic domain (Homo sapiens (Human), UniProt P56817); assay: BACE1 HTRF FRET Assay; type: biochemical; conditions: for Ki: Ki calculated from IC50 using the Cheng-Prusoff equation; for inhibition at 10 µM: read-out: BACE1 % Inh. at 10 μM
From the text: A homogeneous time-resolved FRET assay can be used to determine IC50 values for inhibitors of the soluble human BACE1 catalytic domain. This assay monitors the increase of 620 nm fluorescence that resulted from BACE1 cleavage of an APPswedish APP^swe mutant peptide FRET substrate (QSY7-[…]-Europium-amide). This substrate contains an N-terminal QSY7 moiety that serves as a quencher of the C-terminal Europium fluorophore (620 nm Em). In the absence of enzyme activity, 620 nm fluorescence is low in the assay and increased linearly over 3 hours in the presence of uninhibited BACE1 enzyme Inhibition of BACE1 cleavage of the QSY7-APP^swe-Eu substrate by inhibitors is manifested as a suppression of 620 nm fluorescence.
Reactions are initiated by addition of 10 μl of 600 nM QSY7-APP^swe-Eu substrate (200 nM final) to give a final reaction volume of 30 μl in a 384 well Nunc HTRF plate. The reactions are incubated at 30° C. for 1.5 hours. The 620 nm fluorescence is then read on a Rubystar HTRF plate reader (BMG Labtechnologies) using a 50 millisecond delay followed by a 400 millisecond acquisition time window Inhibitor IC50 values are derived from non-linear regression analysis of concentration response curves.

[2] = target: purified human autoBACE-2 (Homo sapiens (Human), UniProt Q9Y5Z0); assay: BACE-2 Assay (BACE-HTRF assay); type: biochemical; conditions: Ki calculated from IC50 using the Cheng-Prusoff equation; read-out: BACE2 Ki
purified human autoBACE-2, sequence (Q9Y5Z0 63-473 limits assumed): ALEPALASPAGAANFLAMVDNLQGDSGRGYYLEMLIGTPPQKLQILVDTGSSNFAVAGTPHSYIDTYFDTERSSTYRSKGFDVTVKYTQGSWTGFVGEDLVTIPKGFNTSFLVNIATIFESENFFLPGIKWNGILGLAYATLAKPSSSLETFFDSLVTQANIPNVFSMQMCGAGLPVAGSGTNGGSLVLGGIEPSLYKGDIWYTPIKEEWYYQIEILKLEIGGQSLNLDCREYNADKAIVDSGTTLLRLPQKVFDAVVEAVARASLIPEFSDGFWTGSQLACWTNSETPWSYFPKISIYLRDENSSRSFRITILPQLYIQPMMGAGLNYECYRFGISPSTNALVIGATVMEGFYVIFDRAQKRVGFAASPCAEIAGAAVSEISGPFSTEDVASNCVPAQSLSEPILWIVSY
Experimental: Inhibitor IC50s at purified human autoBACE-2 are determined in a time-resolved endpoint proteolysis assay that measures hydrolysis of the QSY7-[…]-Eu-amide FRET peptide substrate (BACE-HTRF assay). […] DMSO is present at 5% final concentration in the assay. Following laser excitation of sample wells at 320 nm, the fluorescence signal at 620 nm is collected for 400 ms following a 50 μs delay on a RUBYstar HTRF plate reader (BMG Labtechnologies). Raw RFU data is normalized to maximum (1.0 nM BACE/DMSO) and minimum (no enzyme/DMSO) RFU values. […] The Ki values are calculated from the IC50 using the Cheng-Prusoff equation.

soluble human BACE1 catalytic domain, sequence (P56817 75-416): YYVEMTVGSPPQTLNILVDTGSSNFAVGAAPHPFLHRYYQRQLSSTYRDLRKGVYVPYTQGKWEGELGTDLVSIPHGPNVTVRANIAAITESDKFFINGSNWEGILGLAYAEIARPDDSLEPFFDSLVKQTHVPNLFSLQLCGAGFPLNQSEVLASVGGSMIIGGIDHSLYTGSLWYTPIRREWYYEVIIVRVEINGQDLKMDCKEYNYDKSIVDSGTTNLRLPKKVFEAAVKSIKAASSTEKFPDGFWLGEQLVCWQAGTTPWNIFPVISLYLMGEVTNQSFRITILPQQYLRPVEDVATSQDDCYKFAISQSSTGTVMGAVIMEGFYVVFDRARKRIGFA

Ki [1] | Ki [2] | inhibition at 10 µM [1] | inhibition at 1 µM ([1]; read-out: BACE1 % Inh. at 1 μM) | SMILES
14.2 nM | 1.5 nM |  |  | COc1cccc2cc(-c3cc(Cl)c([C@]4(C)CS(=O)(=O)[C@@]5(CCOC5)C(=N)N4)s3)[nH]c12 [Example 63f]
 | 2800 nM | 49% |  | C[C@@]1(c2cc(N)ccc2F)CS(=O)(=O)C2(CCCCC2)C(=N)N1
10.9 nM | 2.1 nM |  |  | C[C@@]1(c2cc(NC(=O)c3ccc(F)cn3)ccc2F)CS(=O)(=O)C2(CCOCC2)C(=N)N1 [Example 30]
82 nM | < 20 nM |  |  | C[C@@]1(c2cc(NC(=O)c3cn4ccsc4n3)ccc2F)CS(=O)(=O)C2(CCCC2)C(=N)N1 [Example 20]
16.3 nM | < 50 nM |  |  | COc1cnc(C(=O)Nc2ccc(F)c([C@]3(C)CS(=O)(=O)C4(CCOCC4)C(=N)N3)c2)cn1 [Example 32]
296 nM | < 50 nM |  |  | C[C@@]1(c2sc(-c3ccnc(-c4ccoc4)c3)cc2Cl)CS(=O)(=O)[C@]2(CCOC2)C(=N)N1 [Example 62j]
18.6 nM | < 50 nM |  |  | C[C@@]1(c2sc(-c3cccc(-c4nnco4)c3)cc2Cl)CS(=O)(=O)C2(CCC2)C(=N)N1 [Example 61a]
108 nM | < 50 nM |  |  | C[C@@]1(c2sc(-c3cncc(C#N)c3)cc2Cl)CS(=O)(=O)C2(CC2)C(=N)N1 [Example 65]
5 nM | 0.5 nM |  |  | C[C@@]1(c2cc(NC(=O)c3ncc(F)cc3F)ccc2F)CS(=O)(=O)C2(CC2)C(=N)N1 [Example 4]
3.4 nM | 1.9 nM |  |  | COc1ccc(C(=O)Nc2ccc(F)c([C@]3(C)CS(=O)(=O)C4(CC4)C(=N)N3)c2)nc1 [Example 5]
4.2 nM | < 20 nM |  |  | COc1cnc(C(=O)Nc2ccc(F)c([C@]3(C)CS(=O)(=O)C4(CC4)C(=N)N3)c2)cn1 [Example 2]
18.4 nM | < 20 nM |  |  | C[C@@]1(c2cc(NC(=O)c3cn4ncsc4n3)ccc2F)CS(=O)(=O)C2(CCCC2)C(=N)N1 [Example 19]
56.7 nM | 2.8 nM |  |  | C[C@@]1(c2sc(-c3cncc(-c4ncco4)c3)cc2Cl)CS(=O)(=O)[C@]2(CCOC2)C(=N)N1 [Example 62h]
48 nM | < 20 nM |  |  | C[C@@]1(c2sc(-c3cccc(C#N)c3)cc2Cl)CS(=O)(=O)C2(CCCCC2)C(=N)N1 [Example 45]
2.2 nM | 2.1 nM |  |  | C[C@@]1(c2cc(NC(=O)c3ccc(C(F)(F)F)cn3)ccc2F)CS(=O)(=O)C2(CCCC2)C(=N)N1 [Example 14]
110 nM | < 50 nM |  |  | C[C@@]1(c2sc(C#CC3CCCC3)cc2Cl)CS(=O)(=O)C2(CCC2)C(=N)N1 [Example 77b]
4130 nM | 1420 nM |  |  | C[C@@]1(c2cc(N)ccc2F)CS(=O)(=O)C2(CCCC2)C(=N)N1
5.2 nM | < 20 nM |  |  | C[C@@]1(c2cc(NC(=O)c3ccc(C#N)cn3)ccc2F)CS(=O)(=O)[C@@]2(CCOC2)C(=N)N1 [Example 63d]
 | 3820 nM | 38% |  | C[C@@]1(c2cc(N)ccc2F)CS(=O)(=O)[C@@]2(CCOC2)C(=N)N1
13.9 nM | 1.3 nM |  |  | Cc1nc(C(=O)Nc2ccc(F)c([C@]3(C)CS(=O)(=O)C4(CCCC4)C(=N)N3)c2)no1 [Example 21]
157 nM | < 50 nM |  |  | C[C@@]1(c2sc(-c3cncc(C(F)(F)F)c3)cc2Cl)CS(=O)(=O)C2(CCOCC2)C(=N)N1 [Example 54]
107 nM | < 20 nM |  |  | C[C@@]1(c2sc(-c3cncc(-c4ncco4)c3)cc2Cl)CS(=O)(=O)[C@@]2(CCOC2)C(=N)N1 [Example 63h]

Ki [1] | Ki [2] | inhibition at 10 µM [1] | inhibition at 1 µM ([1]; read-out: BACE1 % Inh. at 1 μM) | SMILES
56 nM | < 20 nM |  |  | C[C@@]1(c2sc(-c3cncc(C#N)c3)cc2Cl)CS(=O)(=O)C2(CCC2)C(=N)N1 [Example 59]
 | 935 nM |  | 42% | C[C@@]1(c2cc(Br)ccc2F)CS(=O)(=O)C2(CCCC2)C(=N)N1
165 nM | < 20 nM |  |  | CC(C)(C)C#Cc1cc(Cl)c([C@]2(C)CS(=O)(=O)C3(CCC3)C(=N)N2)s1 [Example 77a]
108 nM | 3.1 nM |  |  | C[C@@]1(c2cc(NC(=O)c3cnsn3)ccc2F)CS(=O)(=O)C2(CCCC2)C(=N)N1 [Example 23]
227 nM | < 50 nM |  |  | C[C@@]1(c2sc(C(=O)Nc3cccc(F)n3)cc2Cl)CS(=O)(=O)C2(CC2)C(=N)N1 [Example 79c]
9.3 nM | 2.4 nM |  |  | C[C@@]1(c2cc(NC(=O)c3ccc(F)cn3)ccc2F)CS(=O)(=O)C2(CCC(O)C2)C(=N)N1 (single isomer, unassigned) [Example 76a]
18.3 nM | 3.4 nM |  |  | C[C@@]1(c2sc(-c3cncc(C#N)c3)cc2Cl)CS(=O)(=O)C2(CCCC2)C(=N)N1 [Example 42]
88 nM | < 20 nM |  |  | CCc1cccc(NC(=O)c2cc(Cl)c([C@]3(C)CS(=O)(=O)C4(CC4)C(=N)N3)s2)n1 [Example 79]
161 nM | < 20 nM |  |  | COc1cc(C#N)cc(-c2cc(Cl)c([C@]3(C)CS(=O)(=O)C4(CCOCC4)C(=N)N3)s2)c1 [Example 57]
6690 nM | 2080 nM |  |  | C[C@@]1(c2cc([N+](=O)[O-])ccc2F)CS(=O)(=O)[C@]2(CCOC2)C(=N)N1
17 nM | < 50 nM |  |  | C[C@@]1(c2cc(NC(=O)c3ccc(C(F)(F)F)cn3)ccc2F)CS(=O)(=O)[C@]2(CCOC2)C(=N)N1 [Example 62d]
 | < 20 nM |  |  | C[C@@]1(c2cc(NC(=O)c3ccc(Cl)cn3)ccc2F)CS(=O)(=O)C2(CCCCC2)C(=N)N1 [Example 24]
4150 nM |  |  |  | CCOCC(=O)Nc1ccc(F)c([C@]2(C)CS(=O)(=O)[C@]3(CCOC3)C(=N)N2)c1 [Example 81a]
998 nM |  |  |  | CC1(C(=O)Nc2ccc(F)c([C@]3(C)CS(=O)(=O)[C@]4(CCOC4)C(=N)N3)c2)CC1 [Example 81e]
260 nM |  |  |  | C[C@@]1(c2sc(-c3cncc(F)c3)cc2Cl)CS(=O)(=O)C2(CCOCC2)C(=N)N1 [Example 55]
429 nM |  |  |  | COCC(=O)Nc1ccc(F)c([C@]2(C)CS(=O)(=O)[C@]3(CCOC3)C(=N)N2)c1 [Example 81w]
851 nM |  |  |  | C[C@@]1(c2sc(C(=O)NCc3ccc(C#N)cc3)cc2Cl)CS(=O)(=O)C2(CCCCC2)C(=N)N1 [Example 80f]
26 nM |  |  |  | C[C@@]1(c2cc(NC(=O)c3ncc(F)cc3F)ccc2F)CS(=O)(=O)[C@]2(CCOC2)C(=N)N1 [Example 81k]
488 nM |  |  |  | C[C@@]1(c2cc(NC(=O)C3CCO3)ccc2F)CS(=O)(=O)[C@]2(CCOC2)C(=N)N1 (stereo partly shown) [Example 81d]
5170 nM |  |  |  | C[C@@]1(c2cc(NC(=O)C3CC3)ccc2F)CS(=O)(=O)[C@]2(CCOC2)C(=N)N1 [Example 81]
717 nM |  |  |  | CCc1cccc(NC(=O)c2cc(Cl)c([C@]3(C)CS(=O)(=O)C4(CCCCC4)C(=N)N3)s2)n1 [Example 80m]
459 nM |  |  |  | C[C@@]1(c2cc(-c3cncc(Cl)c3)ccc2F)CS(=O)(=O)C2(CCCC2)C(=N)N1 [Example 37]

SMILES | Ki [1] | Ki [2] | inhibition at 10 µM [1] | inhibition at 1 µM ([1]; read-out: BACE1 % Inh. at 1 μM)
C[C@@]1(c2cc(NC(=O)c3ccc(F)cn3)ccc2F)CS(=O)(=O)C2(CC(O)C2)C(=N)N1 (stereo partly shown) [Example 75] | 12.5 nM | 1.7 nM |  | 
C[C@@]1(c2sc(Br)cc2Cl)CS(=O)(=O)C2(CCC2)C(=N)N1 | 1570 nM | 531 nM |  | 
C[C@@]1(c2cc(NC(=O)c3ccc(F)cn3)ccc2F)CS(=O)(=O)C2(CC(O)C2)C(=N)N1 (stereo partly shown) [Example 74] | 21.8 nM | 3.8 nM |  | 
C[C@@]1(c2cc(NC(=O)c3ccc(Cl)cn3)ccc2F)CS(=O)(=O)[C@]2(CCOC2)C(=N)N1 [Example 62c] | 8.1 nM | 1.8 nM |  | 
